Ki, EC50 and Emax data for four molecules are collected here from patent US8980906B2, “Pyridonemorphinan analogs and biological activity on opioid receptors” (Purdue Pharma L.P., priority 2012, dated 2015).

The target of assay [1] is T1, μ-opioid receptor (Homo sapiens (Human), UniProt P35372). As to the kind of experiment: μ-opioid receptor radioligand dose-displacement binding assay ([3H]-diprenorphine). The settings on record: binding affinity, [3H]-diprenorphine displacement; read-out: Ki (nM) Opioid Receptor μ. As for the experimental part: μ-Opioid Receptor Binding Assay Procedures: Radioligand dose-displacement binding assays for μ-opioid receptors used 0.3 nM [^3H]-diprenorphine (Perkin Elmer, Shelton, Conn.), with […] membrane protein/well in a final volume of 500 μl binding buffer (10 mM MgCl2, 1 mM EDTA, 5% DMSO, 50 mM HEPES, pH 7.4). Reactions were carried out in the absence or presence of increasing concentrations of unlabeled naloxone. All reactions were conducted in 96-deep well polypropylene plates for 2 hours at room temperature. Binding reactions were terminated by rapid filtration onto 96-well Unifilter GF/C filter plates (Perkin Elmer, Shelton, Conn.), presoaked in 0.5% polyethylenimine using a 96-well tissue harvester (Perkin Elmer, Shelton, Conn.) followed by performing three filtration washes with 500 μl of ice-cold binding buffer. Filter plates were subsequently dried at 50° C. for 2-3 hours. BetaScint scintillation cocktail (Perkin Elmer, Shelton, Conn.) was added (50 μl/well), and plates were counted using a Packard Top-Count for 1 min/well. The data were analyzed using the one-site competition curve fitting functions in GraphPad PRISM™ v. 3.0 or higher (San Diego, Calif.), or an in-house function for one-site competition curve-fitting.

Assay [2] deals with T2, κ-opioid receptor (Homo sapiens (Human), UniProt P41145). Kind of assay: κ-opioid receptor radioligand dose-displacement binding assay ([3H]-U69,593). The settings on record: binding affinity, [3H]-U69,593 displacement. The protocol:
κ-Opioid Receptor Binding Assay Procedures: Membranes from HEK-293 cells, CHO or U-2 OS cells expressing the recombinant human kappa opioid receptor (κ) were prepared by lysing cells in ice cold hypotonic buffer (2.5 mM MgCl2, 50 mM HEPES, pH 7.4) (10 mL/10 cm dish) followed by homogenization with a tissue grinder/Teflon pestle. Membranes were collected by centrifugation at 30,000×g for 15 min at 4° C. and pellets were resuspended in hypotonic buffer to a final concentration of 1-3 mg/mL. Protein concentrations were determined using the BioRad protein assay reagent with bovine serum albumen as standard, Aliquots of κ receptor membranes were stored at […].
Radioligand dose displacement assays used 0.4 nM [^3H]-U69,593 (GE Healthcare, Piscataway, N.J.; 40 Ci/mmole) with 15 μg membrane protein (recombinant κ opioid receptor expressed in HEK 293 cells; in-house prep) in a final volume of 200 μl binding buffer (5% DMSO, 50 mM Trizma base, pH 7.4). Non-specific binding was determined in the presence of 10 μM unlabeled naloxone or U69,593. All reactions were performed in 96-well polypropylene plates for 1 hour at a temperature of about 25° C. Binding reactions were terminated by rapid filtration onto 96-well Unifilter GF/C filter plates (Perkin Elmer, Shelton, Conn.) presoaked in 0.5% polyethylenimine (Sigma). Harvesting was performed using a 96-well tissue harvester (Perkin Elmer, Shelton, Conn.) followed by five filtration washes with 200 μl ice-cold binding buffer. Filter plates were subsequently dried at 50° C. for 1-2 hours. Fifty μl/well scintillation cocktail (Perkin Elmer, Shelton, Conn.) was added and plates were counted in a Packard Top-Count for 1 min/well.

Assay [3] deals with δ-opioid receptor (Homo sapiens (Human), UniProt P41143). Kind of assay: δ-opioid receptor radioligand dose-displacement binding assay ([3H]-Naltrindole). The following applies: binding affinity, [3H]-Naltrindole displacement. The protocol: δ-Opioid Receptor Binding Assay Procedures: δ-Opioid Receptor Binding Assay Procedures were conducted as follows. Radioligand dose-displacement assays used 0.2 nM [^3H]-Naltrindole (Perkin Elmer, Shelton, Conn.; 33.0 Ci/mmole) with 5 μg membrane protein (Perkin Elmer, Shelton, Conn.) in a final volume of 500 μl binding buffer (5 mM MgCl2, 5% DMSO, 50 mM Trizma base, pH 7.4). Non-specific binding was determined in the presence of 25 μM unlabeled naloxone. All reactions were performed in 96-deep well polypropylene plates for 1 hour at a temperature of about 25° C. Binding reactions were terminated by rapid filtration onto 96-well Unifilter GF/C filter plates (Perkin Elmer, Shelton, Conn.) presoaked in 0.5% polyethylenimine (Sigma). Harvesting was performed using a 96-well tissue harvester (Perkin Elmer, Shelton, Conn.) followed by five filtration washes with 500 μl ice-cold binding buffer. Filter plates were subsequently dried at 50° C. for 1-2 hours. Fifty μl/well scintillation cocktail (Perkin Elmer, Shelton, Conn.) was added and plates were counted in a Packard Top-Count for 1 min/well.

Assay [4] addresses T1, μ-opioid receptor. Kind of assay: μ-opioid receptor [35S]GTPγS functional assay, HEK-293 or CHO cells. It is filed as biochemical. The following applies: for Emax: relative to DAMGO, HEK-293 or CHO cells.
For assay [5], the target named is T2, κ-opioid receptor. As to the kind of experiment: κ-opioid receptor [35S]GTPγS functional assay, HEK-293 or CHO cells. The following applies: for Emax: relative to U69,593, HEK-293 or CHO cells. It is filed as biochemical. For orientation: GTPγS is a poorly hydrolysed GTP analogue; its binding reports G protein activation.
The target in assay [6] is ORL-1 receptor (Homo sapiens (Human), UniProt P41146). Kind of assay: ORL-1 receptor radioligand binding assay ([3H]-nociceptin). The following applies: binding affinity, [3H]-nociceptin displacement. As for the experimental part: ORL-1 Receptor Binding Assay Procedure: Membranes from recombinant HEK-293 cells expressing the human opioid receptor-like receptor (ORL-1) (Perkin Elmer, Shelton, Conn.) were prepared by lysing cells in ice-cold hypotonic buffer (2.5 mM MgCl2, 50 mM HEPES, pH 7.4) (10 ml/10 cm dish) followed by homogenization with a tissue grinder/Teflon pestle. Membranes were collected by centrifugation at 30,000×g for […] at 4° C. and pellets resuspended in hypotonic buffer to a final concentration of 1-3 mg/ml. Protein concentrations were determined using the BioRad protein assay reagent with bovine serum albumen as standard. Aliquots of the ORL-1 receptor membranes were stored at −80° C.
Radioligand binding assays (screening and dose-displacement) used 0.1 nM [^3H]-nociceptin (Perkin Elmer, Shelton, Conn.; 87.7 Ci/mmole) with 12 μg membrane protein in a final volume of 500 μl binding buffer (10 mM MgCl2, 1 mM EDTA, 5% DMSO, 50 mM HEPES, pH 7.4). Non-specific binding was determined in the presence of […] unlabeled nociceptin (American Peptide Company). All reactions were performed in 96-deep well polypropylene plates for 1 h at room temperature. Binding reactions were terminated by rapid filtration onto 96-well Unifilter GF/C filter plates (Perkin Elmer, Shelton, Conn.) presoaked in 0.5% polyethylenimine (Sigma). Harvesting was performed using a 96-well tissue harvester (Perkin Elmer, Shelton, Conn.) followed by three filtration washes with 500 μl ice-cold binding buffer. Filter plates were subsequently dried at 50° C. for 2-3 hours. Fifty μl/well scintillation cocktail (Perkin Elmer, Shelton, Conn.) was added and plates were counted in a Packard Top-Count for 1 min/well. The data from screening and dose-displacement experiments were analyzed using Microsoft Excel and the curve fitting functions in GraphPad PRISM™, v. 3.0 or higher, respectively, or an in-house function for one-site competition curve-fitting.

δ-opioid receptor, sequence (P41143 whole entry, looked up): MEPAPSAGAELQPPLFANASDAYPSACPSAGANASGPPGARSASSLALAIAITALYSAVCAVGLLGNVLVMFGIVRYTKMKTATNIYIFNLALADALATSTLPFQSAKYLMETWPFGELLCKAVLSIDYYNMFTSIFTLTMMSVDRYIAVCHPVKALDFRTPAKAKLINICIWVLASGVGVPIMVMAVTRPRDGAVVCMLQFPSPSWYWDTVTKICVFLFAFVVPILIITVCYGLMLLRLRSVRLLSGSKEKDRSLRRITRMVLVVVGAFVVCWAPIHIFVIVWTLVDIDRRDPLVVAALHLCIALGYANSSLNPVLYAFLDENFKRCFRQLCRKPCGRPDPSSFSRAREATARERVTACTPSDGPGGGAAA

Regarding `COC(=O)c1cc2c([nH]c1=O)C[C@]13CCN(CC4CC4)[C@H](Cc4ccc(OC)cc41)[C@@H]3C2` [Compound 3, (6R,6aR,12aS)-methyl 15-(cyclopropylmethyl)-2-methoxy-10-oxo-6,6a,7,10,11,12-hexahydro-5H-6,12a-(epiminoethano)naphtho[2,1-g]quinoline-9-carboxylate], the Ki was 449 ± 171 nM in assay [1], 3.85 ± 1.09 nM in assay [2] and 18.9 ± 7.84 nM in assay [3]. For the same molecule, the values for the EC50 in assay [4] and in assay [5] were 34.9 ± 6.84 nM and 39.1 ± 2.6 nM, respectively. Further, the results for the Emax in assay [4] and in assay [5] were 15.7 ± 3.48% and 52.3 ± 1.76%, respectively.

For the molecule `NC(=O)CNC(=O)c1cc2c([nH]c1=O)C[C@]13CCN(CC4CC4)[C@H](Cc4ccc(O)cc41)[C@@H]3C2` [Compound 21, (6R,6aR,12aS)—N-(2-amino-2-oxoethyl)-15-(cyclopropylmethyl)-2-hydroxy-10-oxo-6,6a,7,10,11,12-hexahydro-5H-6,12a-(epiminoethano)naphtho[2,1-g]quinoline-9-carboxamide], the Ki in assay [6] came out at 2.04 ± 0.49 nM; in assay [1] it was 0.59 ± 0.15 nM. For the same molecule, the EC50 came to 1.73 ± 0.41 nM in assay [4] and 4.19 ± 0.79 nM in assay [5]. Moreover, the Emax in assay [4] worked out at 23.7 ± 2.19%; in assay [5], 41 ± 5.29%.

`C[C@H](NC(=O)c1cc2c([nH]c1=O)C[C@]13CCN(CC4CC4)[C@H](Cc4ccc(O)cc41)[C@@H]3C2)C(N)=O` [Compound 22, (6R,6aR,12aS)—N—((S)-1-amino-1-oxopropan-2-yl)-15-(cyclopropylmethyl)-2-hydroxy-10-oxo-6,6a,7,10,11,12-hexahydro-5H-6,12a-(epiminoethano)naphtho[2,1-g]quinoline-9-carboxamide]: the Ki was 1.2 ± 0.21 nM in assay [6] and 0.56 ± 0.11 nM in assay [1]. For the same molecule, the results for the EC50 in assay [4] and in assay [5] were 4.22 ± 1 nM and 9.89 ± 2.4 nM, respectively. Further, the Emax in assay [4] was found to be 30 ± 3.21%; in assay [5] it was 36.7 ± 2.73%.

As to `NC(=O)C[C@H](NC(=O)c1cc2c([nH]c1=O)C[C@]13CCN(CC4CC4)[C@H](Cc4ccc(O)cc41)[C@@H]3C2)C(N)=O` [Compound 26], the inhibition constant (Ki) in assay [1] was 0.71 ± 0.11 nM; in assay [2] it was 0.86 ± 0.23 nM. Further, the values for the EC50 in assay [4] and in assay [5] were 7.54 ± 1.97 nM and 8.87 ± 1.35 nM, respectively. For the same molecule, the Emax in assay [4] came to 38 ± 1.15%; in assay [5] it was 39 ± 2.08%.

For orientation: Ki means the dissociation constant of the complex between target and ligand, obtained from inhibition or displacement. The term EC50 denotes the concentration giving half of the maximal effect. Low values mean a more potent agent, high ones a less potent agent. The term Emax denotes the maximal effect, on the per cent scale that the assay sets.
